Data from patent US5122381A, “Composition and process for dissolving a sparingly water-soluble flavonoid” (San-Ei Chemical Industries, Ltd., priority 1989, dated 1992).

Experiments:
[1] = Dissolution of Rutin: precipitation observed on standing with Glycoside I; type: physicochemical; parameters: key: ++: indicating the greatest degree of precipitation; +: precipitation was observed; -: indicating no observed precipitation; details: 0.04 wt % rutin
Procedure: (§1) Water (100 ml) containing 12 W/V% of granulated sugar and 0.3 W/V% of citric acid was poured into each of five test tubes (100 ml) No. 1 to 5, to which 0.4 ml of rutin (10 W/V%) solution in ethanol (equivalent to 0.04 g of rutin) was added. Immediately thereafter, mixed was a solution of the Glycoside I (13.4 W/V%) in ethanol in amounts of 0.024 ml, 0.032 ml, 0.04 ml and 0.05 ml respectively to the test tubes No. 2 to 5. These amounts were equivalent to 8.0 wt. %, 10.8 wt. %, 13.5 wt. % and 16.0 wt. %, respectively relative to the amount of rutin.
(§2) All of these mixtures including No. 1 to which the Glycoside I had not been added were transparent when observed immediately after mixing. After standing for 24 hours, some mixtures were recognized to have precipitation. Standing was continued for 14 days at room temperature in observing precipitation states of the mixtures. On completion of this standing, rutin concentration of each supernatant liquid of the mixtures was measured using high-speed liquid chromatography.
The "+" and "-" signs in Table 1 denote comparative amounts of precipitation of the rutin. The range extends from "++", indicating the greatest degree of precipitation, down to "-", indicating no observed precipitation.

[2] = Dissolution of Rutin: rutin remaining in solution (supernatant, high-speed liquid chromatography); type: physicochemical; details: 13.5 wt. % of Glycoside I relative to rutin; standing 14 days at room temperature
Procedure: as §1, §2

Precipitation Observed ([1]; No. 1, Glycoside I 0 wt % relative to rutin, 1st day): + +
Precipitation Observed ([1]; No. 1, Glycoside I 0 wt % relative to rutin, 3rd day): + +
Precipitation Observed ([1]; No. 1, Glycoside I 0 wt % relative to rutin, 6th day): + +
Precipitation Observed ([1]; No. 1, Glycoside I 0 wt % relative to rutin, 14th day): + +
Precipitation Observed ([1]; No. 2, Glycoside I 8.0 wt % relative to rutin, 1st day): +
Precipitation Observed ([1]; No. 2, Glycoside I 8.0 wt % relative to rutin, 3rd day): +
Precipitation Observed ([1]; No. 2, Glycoside I 8.0 wt % relative to rutin, 6th day): +
Precipitation Observed ([1]; No. 2, Glycoside I 8.0 wt % relative to rutin, 14th day): +
rutin stably dissolved in water [2]: at least 0.04 wt. %
SMILES: C[C@@H]1O[C@@H](OC[C@H]2O[C@@H](Oc3c(-c4ccc(O)c(O)c4)oc4cc(O)cc(O)c4c3=O)[C@H](O)[C@@H](O)[C@@H]2O)[C@H](O)[C@H](O)[C@H]1O [Rutin]
